Columns and labels:
[1] = Mutagenicity in Salmonella typhimurium TA98 assessed as inhibition of bacterial growth at 0.152 to 333 ug incubated in absence of S9 fraction by micro-Ames test; type: toxicity, Salmonella enterica subsp. enterica serovar Typhimurium; settings: in vivo; dose 0.152-333 µg
[2] = Mutagenicity in Escherichia coli WP2uvrA assessed as inhibition of bacterial growth at 0.152 to 333 ug incubated in absence of S9 fraction by micro-Ames test; type: toxicity; settings: in vivo; dose 0.152-333 µg
[3] = system: SARS-CoV-2; experiment: Antiviral activity against SARS-CoV-2 JPN/TY/WK-521 infected in Vero E6 cells assessed as fold change preincubated with cells for 1 day followed by viral infection and measured after 3 days by qRT-PCR analysis relative to TKB245; type: functional, Severe acute respiratory syndrome coronavirus 2; settings: time 4 day
[4] = Mutagenicity in Escherichia coli WP2uvrA assessed as fold increase in number of revertants at 0.152 to 333 ug incubated in presence of S9 fraction by micro-Ames test relative to control; type: toxicity, subcellular; settings: dose 0.152-333 µg
[5] = system: SARS-CoV-2; experiment: Antiviral activity against SARS-CoV-2 assessed as fold change relative to YH-53; type: functional, Severe acute respiratory syndrome coronavirus 2
[6] = system: SARS-CoV-2; experiment: Antiviral activity against SARS-CoV-2 hCoV-19/Japan/TKYS02037/2022 (omicron BA.2) infected in Vero E6 cells preincubated with cells for 1 day followed by viral infection and measured after 3 days by qRT-PCR analysis; type: functional, organism-based; settings: Severe acute respiratory syndrome coronavirus 2, hCoV-19/Japan/TKYS02037/2022 (omicron BA.2), Vero C1008
[7] = Mutagenicity in Salmonella typhimurium TA1537 assessed as fold increase in number of revertants at 0.152 to 333 ug incubated in presence of S9 fraction by micro-Ames test relative to control; type: toxicity, subcellular, Salmonella enterica subsp. enterica serovar Typhimurium; settings: dose 0.152-333 µg
[8] = Mutagenicity in Salmonella typhimurium TA1535 assessed as fold increase in number of revertants at 0.152 to 333 ug incubated in absence of S9 fraction by micro-Ames test relative to control; type: toxicity, Salmonella enterica subsp. enterica serovar Typhimurium; settings: in vivo; dose 0.152-333 µg
[9] = Mutagenicity in Salmonella typhimurium TA1535 assessed as inhibition of bacterial growth at 0.152 to 333 ug incubated in absence of S9 fraction by micro-Ames test; type: toxicity, Salmonella enterica subsp. enterica serovar Typhimurium; settings: in vivo; dose 0.152-333 µg
[10] = Mutagenicity in Escherichia coli WP2uvrA assessed as inhibition of bacterial growth at 0.152 to 333 ug incubated in presence of S9 fraction by micro-Ames test; type: toxicity, subcellular; settings: dose 0.152-333 µg
[11] = Mutagenicity in Salmonella typhimurium TA100 assessed as inhibition of bacterial growth at 0.152 to 333 ug incubated in absence of S9 fraction by micro-Ames test; type: toxicity, Salmonella enterica subsp. enterica serovar Typhimurium; settings: in vivo; dose 0.152-333 µg
[12] = Oral bioavailability in PXB mouse at 10 mg/kg measured for 24 hrs; type: ADME, organism-based; settings: in vivo
[13] = system: SARS-CoV-2; experiment: Antiviral activity against SARS-CoV-2 infected in Vero E6 cells preincubated with cells for 1 day in presence of HCl treated compound followed by viral infection and measured after 3 days by qRT-PCR analysis; type: functional, organism-based; settings: Severe acute respiratory syndrome coronavirus 2, Vero C1008
[14] = Stability of compound in 50% MeCN in H2O containing 0.05% trifluoroacetic acid assessed as (1R,2S,5S)-3-((S)-3,3-dimethyl-2-(2,2,2-trifluoroacetamido)butanoyl)-N-((S)-1-(4-fluorobenzo[d]thiazol-2-yl)-1-oxo-3-((S)-2-oxopyrrolidin-3-yl)propan-2-yl)-6,6-dimethyl-3-azabicyclo[3.1.0]hexane-2-carboxamide formation at 5 degreeC measured after 24 hrs by RP-HPLC analysis; type: physicochemical
[15] = Cytotoxicity against human HeLa cells expressing ACE2 and TMPRSS2; type: toxicity, cell-based
[16] = Stability of compound in DMSO incubated for 7 days at -18 degreeC by RP-HPLC analysis; type: physicochemical; settings: 168 h; time 7 day
[17] = Mutagenicity in Salmonella typhimurium TA98 assessed as inhibition of bacterial growth at 0.152 to 333 ug incubated in presence of S9 fraction by micro-Ames test; type: toxicity, subcellular, Salmonella enterica subsp. enterica serovar Typhimurium; settings: dose 0.152-333 µg
[18] = system: Vero C1008; experiment: Cytotoxicity against African green monkey Vero E6 cells infected with SARS-CoV-2 WK-521 upto 100 uM incubated for 3 days by immunostaining analysis; type: toxicity, cell-based; settings: chlorocebus sabaeus, vero c1008, 72 h, time 3 day
[19] = Mutagenicity in Salmonella typhimurium TA100 assessed as inhibition of bacterial growth at 0.152 to 333 ug incubated in presence of S9 fraction by micro-Ames test; type: toxicity, subcellular, Salmonella enterica subsp. enterica serovar Typhimurium; settings: dose 0.152-333 µg
[20] = system: SARS-CoV-2; experiment: Antiviral activity against SARS-CoV-2 JPN/TY/WK-521 infected in Vero E6 cells assessed as inhibition of viral replication preincubated with cells for 1 day followed by viral infection and measured after 3 to 4 days by qRT-PCR analysis; type: functional, organism-based; settings: Severe acute respiratory syndrome coronavirus 2, JPN/TY/WK-521, Vero C1008
[21] = Stability of compound in 50% MeCN in H2O incubated for 24 hrs at room temperature by RP-HPLC analysis; type: physicochemical
[22] = system: MOLT-4; experiment: Cytotoxicity against human MOLT-4 cells assessed as reduction in cell viability at 3 uM incubated for 12 days by CCK-8 assay; type: toxicity, cell-based; settings: molt-4, 288 h, time 12 day
[23] = Mutagenicity in Salmonella typhimurium TA98 assessed as fold increase in number of revertants at 0.152 to 333 ug incubated in presence of S9 fraction by micro-Ames test relative to control; type: toxicity, subcellular, Salmonella enterica subsp. enterica serovar Typhimurium; settings: dose 0.152-333 µg
[24] = system: MT2; experiment: Cytotoxicity against human MT2 cells assessed as reduction in cell viability at 3 uM incubated for 12 days by CCK-8 assay; type: toxicity, cell-based; settings: mt2, 288 h, time 12 day
[25] = system: SARS-CoV-2; experiment: Antiviral activity against SARS-CoV-2 infected in Vero E6 cells preincubated with cells for 1 day in absence of HCl followed by viral infection and measured after 3 days by qRT-PCR analysis; type: functional, organism-based; settings: Severe acute respiratory syndrome coronavirus 2, Vero C1008
[26] = Cytotoxicity against African green monkey Vero E6 cells in presence of P-glycoprotein inhibitor, CP100356; type: toxicity, cell-based, Vero C1008; settings: chlorocebus sabaeus, with CP100356 (P-glycoprotein inhibitor)
[27] = system: PBMC; experiment: Cytotoxicity against human PBMC cells assessed as reduction in cell viability at 3 uM incubated for 12 days by CCK-8 assay; type: toxicity, cell-based; settings: 288 h, time 12 day
[28] = Mutagenicity in Salmonella typhimurium TA1537 assessed as inhibition of bacterial growth at 0.152 to 333 ug incubated in presence of S9 fraction by micro-Ames test; type: toxicity, subcellular, Salmonella enterica subsp. enterica serovar Typhimurium; settings: dose 0.152-333 µg
[29] = Cytotoxicity against human A549-hACE2-TMPRSS2 cells; type: toxicity, cell-based
[30] = Mutagenicity in Salmonella typhimurium TA1535 assessed as fold increase in number of revertants at 0.152 to 333 ug incubated in presence of S9 fraction by micro-Ames test relative to control; type: toxicity, subcellular, Salmonella enterica subsp. enterica serovar Typhimurium; settings: dose 0.152-333 µg
[31] = Mutagenicity in Salmonella typhimurium TA1537 assessed as fold increase in number of revertants at 0.152 to 333 ug incubated in absence of S9 fraction by micro-Ames test relative to control; type: toxicity, Salmonella enterica subsp. enterica serovar Typhimurium; settings: in vivo; dose 0.152-333 µg
[32] = Mutagenicity in Escherichia coli WP2uvrA assessed as fold increase in number of revertants at 0.152 to 333 ug incubated in absence of S9 fraction by micro-Ames test relative to control; type: toxicity; settings: in vivo; dose 0.152-333 µg
[33] = Mutagenicity in Salmonella typhimurium TA100 assessed as fold increase in number of revertants at 0.152 to 333 ug incubated in absence of S9 fraction by micro-Ames test relative to control; type: toxicity, Salmonella enterica subsp. enterica serovar Typhimurium; settings: in vivo; dose 0.152-333 µg
[34] = system: SARS-CoV-2; experiment: Antiviral activity against SARS-CoV-2 JPN/TY/WK-521 infected in Vero E6 cells preincubated with cells for 1 day followed by viral infection and measured after 3 days by qRT-PCR analysis; type: functional, organism-based; settings: Severe acute respiratory syndrome coronavirus 2, JPN/TY/WK-521, Vero C1008
[35] = Mutagenicity in Salmonella typhimurium TA1535 assessed as inhibition of bacterial growth at 0.152 to 333 ug incubated in presence of S9 fraction by micro-Ames test; type: toxicity, subcellular, Salmonella enterica subsp. enterica serovar Typhimurium; settings: dose 0.152-333 µg
[36] = Cytotoxicity against human HepG2 cells; type: toxicity, cell-based
[37] = Mutagenicity in Salmonella typhimurium TA1537 assessed as inhibition of bacterial growth at 0.152 to 333 ug incubated in absence of S9 fraction by micro-Ames test; type: toxicity, Salmonella enterica subsp. enterica serovar Typhimurium; settings: in vivo; dose 0.152-333 µg
[38] = Mutagenicity in Salmonella typhimurium TA98 assessed as fold increase in number of revertants at 0.152 to 333 ug incubated in absence of S9 fraction by micro-Ames test relative to control; type: toxicity, Salmonella enterica subsp. enterica serovar Typhimurium; settings: in vivo; dose 0.152-333 µg
[39] = Cytotoxicity against African green monkey Vero E6 cells incubated for 3 days by WST-8 assay; type: toxicity, cell-based, Vero C1008; settings: chlorocebus sabaeus, time 3 day
[40] = target: Replicase polyprotein 1ab (Severe acute respiratory syndrome coronavirus 2, UniProt P0DTD1); experiment: Inhibition of untagged SARS-CoV-2 JPN/TY/WK-521 Main protease using FRET-based UIVT3 as substrate by continuous fluorescence assay
[41] = Mutagenicity in Salmonella typhimurium TA100 assessed as fold increase in number of revertants at 0.152 to 333 ug incubated in presence of S9 fraction by micro-Ames test relative to control; type: toxicity, subcellular, Salmonella enterica subsp. enterica serovar Typhimurium; settings: dose 0.152-333 µg

## CC(C)(C)[C@H](NC(=O)C(F)(F)F)C(=O)N1C[C@H]2[C@@H]([C@H]1C(=S)N[C@@H](C[C@@H]1CCNC1=O)C(=O)c1nc3c(F)cccc3s1)C2(C)C
[1]
  Activity: Non-Toxic
[2]
  Activity: Non-Toxic
[3]
  fold change (FC): 11
[4]
  fold change (FC): > 2
[5]
  fold change (FC): 0.085
[6]
  EC50: 0.16 µM
[7]
  fold change (FC): > 2
[8]
  fold change (FC): > 2
[9]
  Activity: Non-Toxic
[10]
  Activity: Non-Toxic
[11]
  Activity: Non-Toxic
[12]
  bioavailability: 72%
[13]
  EC50: 0.32 µM
[14]
  Stability: Unstable
[15]
  CC50: > 100 µM
[16]
  Stability: Stable
[17]
  Activity: Non-Toxic
[18]
  Activity: Non-Toxic
[19]
  Activity: Non-Toxic
[20]
  EC50: 0.22 µM
[21]
  Stability: Stable
[22]
  Activity: Non-Toxic
[23]
  fold change (FC): > 2
[24]
  Activity: Non-Toxic
[25]
  EC50: 0.31 µM
[26]
  CC50: > 100 µM
[27]
  Activity: Non-Toxic
[28]
  Activity: Non-Toxic
[29]
  CC50: > 100 µM
[30]
  fold change (FC): > 2
[31]
  fold change (FC): > 2
[32]
  fold change (FC): > 2
[33]
  fold change (FC): > 2
[34]
  EC50: 0.31 µM
[35]
  Activity: Non-Toxic
[36]
  CC50: > 200 µM
[37]
  Activity: Non-Toxic
[38]
  fold change (FC): > 2
[39]
  CC50 at 72 h: > 100 µM
[40]
  IC50: 0.088 µM
[41]
  fold change (FC): > 2

Reference: ChEMBL document CHEMBL5365531, “Structure-Activity Relationship Studies of SARS-CoV-2 Main Protease Inhibitors Containing 4-Fluorobenzothiazole-2-carbonyl Moieties” (J Med Chem, 2023)
